Laboratory results published in US11072624B2, “Synthesis of nucleoside 5′-triphosphates and their derivatives” (priority 2010, dated 2021).

Each compound was assayed against T1, Klenow fragment exo(−), Kf- (Escherichia coli, UniProt P00582, D355A/E357A) (assay: Primer extension reaction of chemically synthesized dNTPs into DNA by Klenow polymerase). Conditions: single test dNTP plus the three other standard dNTPs (lanes 4, 6, 8, 10); 0.1 mM dNTPs, 37° C., 1 h, 19% PAGE.
T1 construct: into DNA by Klenow fragment exo(−), Kf-
T1 sequence (P00582 324-928 D355A/E357A): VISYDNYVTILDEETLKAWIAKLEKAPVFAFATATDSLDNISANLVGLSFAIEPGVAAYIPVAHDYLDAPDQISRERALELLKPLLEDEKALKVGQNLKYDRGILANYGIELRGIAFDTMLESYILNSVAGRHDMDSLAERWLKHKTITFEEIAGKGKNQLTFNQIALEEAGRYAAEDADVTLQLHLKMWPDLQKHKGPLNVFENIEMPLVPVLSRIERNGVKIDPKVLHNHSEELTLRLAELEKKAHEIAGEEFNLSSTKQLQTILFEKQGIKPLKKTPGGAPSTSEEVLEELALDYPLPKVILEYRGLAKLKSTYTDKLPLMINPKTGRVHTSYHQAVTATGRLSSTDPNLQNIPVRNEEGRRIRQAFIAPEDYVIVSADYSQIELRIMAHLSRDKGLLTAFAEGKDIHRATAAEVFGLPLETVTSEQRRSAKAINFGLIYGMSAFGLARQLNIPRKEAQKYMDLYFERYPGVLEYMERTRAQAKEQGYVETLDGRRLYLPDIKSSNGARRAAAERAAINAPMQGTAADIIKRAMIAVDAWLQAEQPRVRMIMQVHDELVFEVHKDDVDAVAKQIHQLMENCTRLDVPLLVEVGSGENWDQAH
Format: biochemical
Protocol: Primer, P was end labeled using polynucleotide kinase and [γ-^32P] ATP. Polymerization reactions were performed with 3.5 μM primer and 5 μM template and equimolar ratios of all dNTPs (0.1 mM) and incubated with 0.05 […] at 37° C. for 1 h. Reaction was analyzed by 19% polyacrylamide gel electrophoresis. Lane 1: primer, P and all dNTPs but no Kf-; lane 2: P plus template, T and all dNTPs (Epicentre, Inc.) with Kf-; lane 3: P/T and all dNTPs except dATP with Kf-; lane 4: P/T and test dATP, dCTP, dGTP, and TTP with Kf-; lane 5: P/T and all dNTPs except dCTP with Kf-; lane 6: P/T and dATP, test dCTP, dGTP and TTP with Kf-; lane 7: P/T and all dNTPs except dGTP with Kf-; lane 8: P/T and dATP, dCTP, test dGTP and TTP with Kf-; lane 9: P/T and all dNTPs except TTP with Kf-; lane 10: P/T and dATP, dCTP, dGTP and test TTP with Kf-; lane 11: P/T and all test dNTPs with Kf-; lane 12: primer, P.
For the polymerase extension reaction, the primer (SEQ ID NO: 1; P: 5′-d-GCGTAATACGACTCACTATAG-3′) was radiolabeled with [γ-^32P] ATP at the 5′-position and incubated with the template (SEQ ID NO: 2; 3′-d-[…]-5′) to allow examination of a test nucleotide (dATP, dCTP, dGTP or TTP), see FIG. 3. The polymerase reaction was conducted in the presence of the Klenow polymerase (0.05 U/μL). […] More convincingly, in a reaction containing each of the test triphosphates (lane 11), full-length product (SEQ ID NO: 3) similar to the standard polymerization reaction (lane 2) was observed.
For Nc1ncnc2c1ncn2[C@H]1C[C@H](O)[C@@H](COP(=O)(O)OP(=O)(O)OP(=O)(O)O)O1 [dATP], the “primer extension to the expected full-length (test dNTP as substrate for the Klenow polymerase)” value (“primer extension” for short) was “efficiently extended the primer”.
Cc1cn([C@H]2C[C@H](O)[C@@H](COP(=O)(O)OP(=O)(O)OP(=O)(O)O)O2)c(=O)[nH]c1=O [TTP] was tested, and the “primer extension” value was “efficiently extended the primer”.
With Nc1nc2c(ncn2[C@H]2C[C@H](O)[C@@H](COP(=O)(O)OP(=O)(O)OP(=O)(O)O)O2)c(=O)[nH]1 [dGTP] the “primer extension” value was “efficiently extended the primer”.
For Nc1ccn([C@H]2C[C@H](O)[C@@H](COP(=O)(O)OP(=O)(O)OP(=O)(O)O)O2)c(=O)n1 [dCTP], the “primer extension” value was “efficiently extended the primer”.
